# Data taken from PMC3388095, “Fluorophore Labeled Kinase Detects Ligands That Bind within the MAPK Insert of p38α Kinase” (PLoS ONE, 2012).
# Tests used:
# Assay in all cases: Kinase selectivity profile, 33P-ATP filter-binding assay
# Assay type in all cases: biochemical
# [1] = molecular target: SRPK1 (Homo sapiens, UniProt Q96SB4)
# Protocol: (§1) Figure 5 Kinase selectivity profile of 1b. Compound 1b was profiled against a selected panel of 95 different kinases at a concentration of 10 µM employing a radioactive (^33P-ATP) filter-binding assay (National Centre for Protein Kinase Profiling, Dundee). The numbers represent the remaining kinase activity in %. […] TEXT PRINTED IN THE PICTURE: no label printed: Aurora B: 53; MNK2: 67; MINK1: 69; HER4: 71; MKK1: 75; PKBβ: 75; PHK: 76; PIM2: 76; PIM3: 77; CHK2: 78; PKD1: 79; TBK1: 79; PAK4: 80; Lck: 80; GSK3β: 80; IGF-1R: 81; p38δ MAPK: 81; PIM1: 82; SRPK1: 83; SmMLCK: 83; MAPKAP-K3: 84; EPH A2: 85; MELK: 85; CK2: 85; CK1: 86; CAMK1: 86; PLK1: 87; MST2: 87; IR-HIS: 87; BTK: 87; HIPK1: 87; p38α MAPK: 88; DYRK2: 88; JNK3: 88; PAK5: 88; IKKε: 89; p38β MAPK: 89; NUAK1: 90; PAK2: 90; MNK1: 91; ERK8: 91; GCK: 91; PRAK: 91; MLK1: 92; SGK1: 92; PAK6: 92; TTK: 92; BRSK2: 92; MARK4: 93; CHK1: 93; RIPK2: 94; CDK2-Cyclin A: 94; JNK1: 94; AMPK: 94; VEG-FR: 95; DYRK1A: 95; CAMKKβ: 95; PKCα: 96; S6K1: 96; MSK1: 96; PKCz: 96; YES1: 96; RSK1: 97; IRAK4: 97; DYRK3: 97; IKKβ: 97; ERK2: 98; MLK3: 98; RSK2: 98; LKB1: 98; MAPKAP-K2: 98; ERK1: 99; FGF-R1: 99; SYK: 99; MST4: 99; MARK3: 99; MARK2: 100; PDK1: 100; JNK2: 101; HIPK2: 101; BRSK1: 102; EF2K: 102; PRK2: 103; Aurora A: 104; IRR: 104; CSK: 104; PKA: 104; NEK6: 105; p38γ MAPK: 105; Src: 107; PKBα: 109; ROCK 2: 109; EPH-B3: 112; HIPK3: 115; NEK2α: 119 DOUBTS OF THE COPYIST ABOUT THIS PICTURE: The picture prints no compound label and no measure or unit for the numbers; only the colour scale 'Inhibition weak/strong' is printed. / PKCz: the last letter may be z or ζ / NEK2α: the last letter may be a or α / IKKε: the last letter may be ε or e
# [2] = molecular target: YES1 (Homo sapiens, UniProt P07947)
# Protocol: as §1
# [3] = molecular target: MNK1 (Homo sapiens, UniProt Q9BUB5)
# Protocol: as §1
# [4] = molecular target: GSK3β (Homo sapiens, UniProt P49841)
# Protocol: as §1
# [5] = molecular target: IKKε (Homo sapiens, UniProt Q14164)
# Protocol: as §1
# [6] = molecular target: PAK6 (Homo sapiens, UniProt Q9NQU5)
# Protocol: as §1
# [7] = molecular target: Src (Homo sapiens, UniProt P12931)
# Protocol: as §1
# [8] = molecular target: DYRK2 (Homo sapiens, UniProt Q92630)
# Protocol: as §1
# [9] = molecular target: Lck (Homo sapiens, UniProt P06239)
# Protocol: as §1
# [10] = molecular target: PRAK (Homo sapiens, UniProt Q8IW41)
# Protocol: as §1
# [11] = molecular target: IRR (Homo sapiens, UniProt P14616)
# Protocol: as §1
# [12] = molecular target: ERK2 (Homo sapiens, UniProt P28482)
# Protocol: as §1
# [13] = molecular target: p38γ MAPK (Homo sapiens, UniProt P53778)
# Protocol: as §1
# [14] = molecular target: TTK (Homo sapiens, UniProt P33981)
# Protocol: as §1
# [15] = molecular target: MSK1 (Homo sapiens, UniProt O75582)
# Protocol: as §1
# [16] = molecular target: DYRK1A (Homo sapiens, UniProt Q13627)
# Protocol: as §1
# [17] = molecular target: FGF-R1 (Homo sapiens, UniProt P11362)
# Protocol: as §1
# [18] = molecular target: SGK1 (Homo sapiens, UniProt O00141)
# Protocol: as §1
# [19] = molecular target: PIM2 (Homo sapiens, UniProt Q9P1W9)
# Protocol: as §1
# [20] = molecular target: BTK (Homo sapiens, UniProt Q06187)
# Protocol: as §1
# [21] = molecular target: PKA (Homo sapiens, UniProt P17612)
# Protocol: as §1
# [22] = molecular target: JNK3 (Homo sapiens, UniProt P53779)
# Protocol: as §1
# [23] = molecular target: PIM1 (Homo sapiens, UniProt P11309)
# Protocol: as §1
# [24] = molecular target: ERK8 (Homo sapiens, UniProt Q8TD08)
# Protocol: as §1
# [25] = molecular target: PKBβ (Homo sapiens, UniProt P31751)
# Protocol: as §1
# [26] = molecular target: JNK1 (Homo sapiens, UniProt P45983)
# Protocol: as §1
# [27] = molecular target: PAK4 (Homo sapiens, UniProt O96013)
# Protocol: as §1
# Sequence of GSK3β (P49841 whole entry): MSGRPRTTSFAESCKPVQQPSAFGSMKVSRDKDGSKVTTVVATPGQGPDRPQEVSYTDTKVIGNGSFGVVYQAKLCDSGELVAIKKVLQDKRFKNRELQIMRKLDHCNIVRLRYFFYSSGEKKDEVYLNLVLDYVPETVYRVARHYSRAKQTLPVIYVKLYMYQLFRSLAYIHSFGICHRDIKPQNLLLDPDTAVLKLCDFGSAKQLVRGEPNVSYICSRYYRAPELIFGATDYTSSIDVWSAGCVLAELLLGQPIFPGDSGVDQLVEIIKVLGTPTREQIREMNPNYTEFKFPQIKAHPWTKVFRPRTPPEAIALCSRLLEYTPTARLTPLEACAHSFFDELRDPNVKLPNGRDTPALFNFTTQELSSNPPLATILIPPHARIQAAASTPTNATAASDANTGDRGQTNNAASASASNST
# Sequence of ERK2 (P28482 whole entry): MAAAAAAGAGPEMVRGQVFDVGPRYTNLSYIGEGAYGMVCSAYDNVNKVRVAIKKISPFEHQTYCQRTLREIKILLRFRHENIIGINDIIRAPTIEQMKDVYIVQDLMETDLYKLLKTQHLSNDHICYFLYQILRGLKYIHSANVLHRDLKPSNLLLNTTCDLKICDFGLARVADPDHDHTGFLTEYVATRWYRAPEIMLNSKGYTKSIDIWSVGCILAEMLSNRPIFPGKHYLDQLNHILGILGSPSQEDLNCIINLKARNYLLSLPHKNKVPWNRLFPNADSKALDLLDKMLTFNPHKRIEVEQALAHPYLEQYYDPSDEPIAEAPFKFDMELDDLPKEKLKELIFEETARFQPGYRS
# Sequence of ERK8 (Q8TD08 whole entry): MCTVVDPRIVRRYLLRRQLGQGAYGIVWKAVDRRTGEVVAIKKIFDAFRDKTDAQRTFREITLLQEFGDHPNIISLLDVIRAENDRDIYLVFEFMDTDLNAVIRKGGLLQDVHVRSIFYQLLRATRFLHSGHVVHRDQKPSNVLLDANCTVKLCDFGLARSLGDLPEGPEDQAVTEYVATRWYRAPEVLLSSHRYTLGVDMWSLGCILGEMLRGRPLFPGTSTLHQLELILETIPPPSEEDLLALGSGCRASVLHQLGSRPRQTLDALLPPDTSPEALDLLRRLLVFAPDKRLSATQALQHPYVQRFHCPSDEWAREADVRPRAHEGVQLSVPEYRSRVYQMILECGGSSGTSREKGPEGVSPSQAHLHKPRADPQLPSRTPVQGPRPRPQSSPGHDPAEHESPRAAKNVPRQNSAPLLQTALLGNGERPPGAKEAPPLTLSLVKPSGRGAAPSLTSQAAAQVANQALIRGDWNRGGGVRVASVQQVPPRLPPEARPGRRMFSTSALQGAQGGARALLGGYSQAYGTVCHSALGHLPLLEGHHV
# Sequence of SGK1 (O00141 whole entry): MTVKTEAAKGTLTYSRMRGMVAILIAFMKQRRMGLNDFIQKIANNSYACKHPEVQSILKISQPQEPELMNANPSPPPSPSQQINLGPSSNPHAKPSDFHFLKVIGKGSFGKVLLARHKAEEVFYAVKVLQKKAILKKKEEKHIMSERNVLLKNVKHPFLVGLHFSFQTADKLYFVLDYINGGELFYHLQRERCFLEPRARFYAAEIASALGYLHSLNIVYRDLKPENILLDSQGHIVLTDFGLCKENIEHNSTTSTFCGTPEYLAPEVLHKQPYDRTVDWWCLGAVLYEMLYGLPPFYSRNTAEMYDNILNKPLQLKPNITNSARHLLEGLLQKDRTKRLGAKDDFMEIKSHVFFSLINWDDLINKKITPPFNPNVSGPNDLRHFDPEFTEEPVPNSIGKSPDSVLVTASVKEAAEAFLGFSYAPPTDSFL
# Sequence of Lck (P06239 whole entry): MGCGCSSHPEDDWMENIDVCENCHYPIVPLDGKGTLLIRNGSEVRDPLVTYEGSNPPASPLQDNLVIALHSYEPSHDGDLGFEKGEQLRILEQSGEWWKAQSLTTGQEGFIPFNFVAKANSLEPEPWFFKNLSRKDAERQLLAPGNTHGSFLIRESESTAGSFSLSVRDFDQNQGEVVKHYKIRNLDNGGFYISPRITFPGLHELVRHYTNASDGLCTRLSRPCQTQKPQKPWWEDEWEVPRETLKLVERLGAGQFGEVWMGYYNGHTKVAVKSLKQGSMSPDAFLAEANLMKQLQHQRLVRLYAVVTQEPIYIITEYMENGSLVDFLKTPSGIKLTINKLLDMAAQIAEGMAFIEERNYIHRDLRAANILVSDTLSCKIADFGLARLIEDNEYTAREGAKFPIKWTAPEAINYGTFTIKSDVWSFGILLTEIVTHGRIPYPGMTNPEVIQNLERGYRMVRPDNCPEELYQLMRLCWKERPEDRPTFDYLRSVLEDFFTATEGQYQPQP
# Sequence of DYRK2 (Q92630 whole entry): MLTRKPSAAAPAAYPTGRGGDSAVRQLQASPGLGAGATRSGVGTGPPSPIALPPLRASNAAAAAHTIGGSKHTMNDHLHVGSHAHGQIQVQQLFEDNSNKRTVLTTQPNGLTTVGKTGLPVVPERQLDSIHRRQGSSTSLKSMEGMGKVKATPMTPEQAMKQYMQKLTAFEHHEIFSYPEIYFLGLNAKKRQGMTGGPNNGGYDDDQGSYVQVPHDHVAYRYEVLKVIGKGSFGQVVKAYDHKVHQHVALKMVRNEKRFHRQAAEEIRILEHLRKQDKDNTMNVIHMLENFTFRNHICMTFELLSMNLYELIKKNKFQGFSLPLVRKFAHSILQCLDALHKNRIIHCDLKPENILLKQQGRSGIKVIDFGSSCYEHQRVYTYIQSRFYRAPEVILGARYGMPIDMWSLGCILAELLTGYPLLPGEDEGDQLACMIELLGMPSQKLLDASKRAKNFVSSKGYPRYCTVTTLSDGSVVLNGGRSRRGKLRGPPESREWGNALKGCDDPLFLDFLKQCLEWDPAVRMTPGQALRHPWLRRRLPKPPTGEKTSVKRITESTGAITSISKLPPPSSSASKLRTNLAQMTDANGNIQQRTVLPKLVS
# Sequence of BTK (Q06187 whole entry): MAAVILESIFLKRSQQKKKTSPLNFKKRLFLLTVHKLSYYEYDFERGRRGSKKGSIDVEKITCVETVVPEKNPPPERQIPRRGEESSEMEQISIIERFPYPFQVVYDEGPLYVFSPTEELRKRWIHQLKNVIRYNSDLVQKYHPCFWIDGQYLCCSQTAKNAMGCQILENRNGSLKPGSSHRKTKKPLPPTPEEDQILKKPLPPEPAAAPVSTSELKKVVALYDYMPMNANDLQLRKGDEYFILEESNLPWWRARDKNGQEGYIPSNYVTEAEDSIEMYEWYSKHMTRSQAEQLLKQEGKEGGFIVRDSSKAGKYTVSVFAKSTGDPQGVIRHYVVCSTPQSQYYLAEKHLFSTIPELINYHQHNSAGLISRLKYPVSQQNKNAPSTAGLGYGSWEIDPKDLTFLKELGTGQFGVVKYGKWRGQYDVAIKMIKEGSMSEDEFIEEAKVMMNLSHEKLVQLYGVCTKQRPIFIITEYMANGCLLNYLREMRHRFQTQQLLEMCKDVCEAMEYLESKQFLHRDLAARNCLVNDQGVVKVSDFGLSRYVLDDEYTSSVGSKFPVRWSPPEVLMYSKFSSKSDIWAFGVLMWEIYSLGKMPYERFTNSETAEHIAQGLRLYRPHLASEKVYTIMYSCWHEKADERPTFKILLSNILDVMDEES
# Sequence of MNK1 (Q9BUB5 whole entry): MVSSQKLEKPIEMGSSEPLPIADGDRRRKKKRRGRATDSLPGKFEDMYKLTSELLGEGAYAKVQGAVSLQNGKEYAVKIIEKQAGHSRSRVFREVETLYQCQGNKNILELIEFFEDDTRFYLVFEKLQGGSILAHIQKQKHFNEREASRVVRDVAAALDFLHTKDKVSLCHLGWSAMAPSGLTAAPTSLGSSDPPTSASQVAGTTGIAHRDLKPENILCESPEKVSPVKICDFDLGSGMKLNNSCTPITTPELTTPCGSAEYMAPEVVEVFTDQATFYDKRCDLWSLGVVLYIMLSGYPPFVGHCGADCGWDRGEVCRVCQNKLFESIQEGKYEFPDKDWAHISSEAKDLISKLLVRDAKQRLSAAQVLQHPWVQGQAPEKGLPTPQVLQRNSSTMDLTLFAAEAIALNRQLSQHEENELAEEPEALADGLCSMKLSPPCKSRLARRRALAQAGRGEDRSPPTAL
# Sequence of SRPK1 (Q96SB4 whole entry): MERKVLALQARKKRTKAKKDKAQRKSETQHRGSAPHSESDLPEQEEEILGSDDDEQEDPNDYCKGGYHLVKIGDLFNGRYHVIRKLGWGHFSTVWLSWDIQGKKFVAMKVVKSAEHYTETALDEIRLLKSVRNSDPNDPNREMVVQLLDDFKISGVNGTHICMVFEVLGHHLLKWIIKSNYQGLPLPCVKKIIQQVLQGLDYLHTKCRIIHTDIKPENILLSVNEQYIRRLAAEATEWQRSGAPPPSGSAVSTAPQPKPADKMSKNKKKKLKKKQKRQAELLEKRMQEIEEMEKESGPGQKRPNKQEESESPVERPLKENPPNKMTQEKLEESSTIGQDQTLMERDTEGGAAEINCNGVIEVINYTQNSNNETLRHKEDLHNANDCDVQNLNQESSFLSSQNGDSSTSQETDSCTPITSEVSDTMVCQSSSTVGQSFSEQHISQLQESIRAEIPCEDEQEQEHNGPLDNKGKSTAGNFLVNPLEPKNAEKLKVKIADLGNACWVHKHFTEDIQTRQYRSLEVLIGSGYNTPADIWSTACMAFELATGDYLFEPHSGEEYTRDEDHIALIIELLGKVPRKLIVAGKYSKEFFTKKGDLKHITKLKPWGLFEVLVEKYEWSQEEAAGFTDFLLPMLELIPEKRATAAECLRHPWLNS
# Sequence of PIM2 (Q9P1W9 whole entry): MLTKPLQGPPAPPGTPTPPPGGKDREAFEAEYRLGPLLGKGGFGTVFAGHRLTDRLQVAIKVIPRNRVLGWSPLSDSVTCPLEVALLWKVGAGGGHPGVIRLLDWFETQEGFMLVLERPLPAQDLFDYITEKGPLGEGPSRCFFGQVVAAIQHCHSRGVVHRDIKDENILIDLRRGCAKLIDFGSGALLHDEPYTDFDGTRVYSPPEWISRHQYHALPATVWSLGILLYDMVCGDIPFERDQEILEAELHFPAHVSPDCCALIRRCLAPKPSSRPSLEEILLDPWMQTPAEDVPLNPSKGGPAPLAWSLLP
compound,measurement,setting,value
"Nc1ccc2c(NC3CC3)nc(-c3ccccc3)nc2c1 [1b, N^4-Cyclopropyl-2-phenyl-4,7-quinazolinediamine]",remaining activity at 10 µM,[1],83%
same,remaining activity at 10 µM,[2],96%
same,remaining activity at 10 µM,[3],91%
same,remaining activity at 10 µM,[4],80%
same,remaining activity at 10 µM,[5],89%
same,remaining activity at 10 µM,[6],92%
same,remaining activity at 10 µM,[7],107%
same,remaining activity at 10 µM,[8],88%
same,remaining activity at 10 µM,[9],80%
same,remaining activity at 10 µM,[10],91%
same,remaining activity at 10 µM,[11],104%
same,remaining activity at 10 µM,[12],98%
same,remaining activity at 10 µM,[13],105%
same,remaining activity at 10 µM,[14],92%
same,remaining activity at 10 µM,[15],96%
same,remaining activity at 10 µM,[16],95%
same,remaining activity at 10 µM,[17],99%
same,remaining activity at 10 µM,[18],92%
same,remaining activity at 10 µM,[19],76%
same,remaining activity at 10 µM,[20],87%
same,remaining activity at 10 µM,[21],104%
same,remaining activity at 10 µM,[22],88%
same,remaining activity at 10 µM,[23],82%
same,remaining activity at 10 µM,[24],91%
same,remaining activity at 10 µM,[25],75%
same,remaining activity at 10 µM,[26],94%
same,remaining activity at 10 µM,[27],80%
